For orientation: IC50 means the concentration that inhibits the measured activity by half. One may read the inhibition as the change of the read-out against control, counted positive when it falls.

The record followed here is paper PMC8225628, “Bispecific repurposed medicines targeting the viral and immunological arms of COVID-19” (Scientific Reports, 2021).

Read-outs that look alike come from different tables or passages of the source.

For one data set, the target named is SARS-CoV-2 PL^pro (Severe acute respiratory syndrome coronavirus 2, UniProt P0DTD1). Put plainly: biochemical. Particulars: for inhibition at 10 µM: read-out: PL^pro % inhibition at 10 µM.
For the next data set, the target named is SARS-CoV-2 M^pro (Severe acute respiratory syndrome coronavirus 2, UniProt P0DTD1). Put plainly: biochemical. Particulars: for inhibition at 10 µM: read-out: M^pro % inhibition at 10 µM.
A further data set concerns SARS-CoV-2. Put plainly: Antiviral assay, inhibition of SARS-CoV-2 cytopathic effect in HUH7_mCherry cells. Particulars: HUH7 cells. In general terms: Protection from cytopathic effect is a common read-out in antiviral testing.
In another data set the test system is HUH7 cells. The following applies: 4 days.
For a further data set, the target named is M^pro (Severe acute respiratory syndrome coronavirus 2, UniProt P0DTD1). The data set is described as follows: M^pro SPR assay. It counts as binding. (In SPR one partner is held on a chip, and binding of the other changes the refractive index at the surface.)
Setting [1] is: ReFRAME hits, >5e-6 = not potent enough to determine an IC50, read-out: PL^pro IC50.
Where [2] appears, read: ReFRAME hits, >5e-6 = not potent enough to determine an IC50, read-out: M^pro IC50.
[3] abbreviates: SARS-CoV-2 PL^pro, range in brackets, read-out: IC50 (µM) (range).

As to `O=C(O)c1cccc(C[C@@H]2COc3ccc(OCc4nc5cc(F)ccc5s4)cc3[C@@H]2O)c1` [(+)-CP-85958], on SARS-CoV-2 PL^pro (ReFRAME hits, 10 µM), the “PL^pro % inhibition at 10 µM” value amounted to 17%. Moreover, the IC50 is > 5 µM on SARS-CoV-2 PL^pro (setting [1]) and 2 µM at SARS-CoV-2 M^pro (setting [2]). Also, on SARS-CoV-2 M^pro (ReFRAME hits), the “M^pro % inhibition at 10 µM” value is 70%.

In the case of `COc1ccc(-c2ccc(OCc3cc(C(=O)[N-]S(=O)(=O)c4ccccc4C)oc3C)cc2)nc1.[Na+]` [BGC-20-1531], the “PL^pro % inhibition at 10 µM” value on SARS-CoV-2 PL^pro (ReFRAME hits, 10 µM) is 24%. Further, the IC50 at SARS-CoV-2 PL^pro (setting [1]) and on SARS-CoV-2 M^pro (setting [2]) was > 5 µM throughout. Besides, at SARS-CoV-2 M^pro (ReFRAME hits), the “M^pro % inhibition at 10 µM” value was 58%.

Take `CC(C)(C)NC(=O)N[C@H](C(=O)N1C[C@H]2[C@@H]([C@H]1C(=O)NC(CC1CCC1)C(=O)C(N)=O)C2(C)C)C(C)(C)C` (stereo partly shown) [Boceprevir, reference compound]: the inhibition at 10 µM at SARS-CoV-2 PL^pro (ReFRAME hits, 10 µM) is -2%; at SARS-CoV-2 M^pro (ReFRAME hits) it was 62%.

Compound `O=C(NCc1ccccn1)C(=O)C(Cc1ccccc1)NC(=O)C1CCC(=O)N1Cc1ccccc1` (stereo not shown) [Compound 1] yielded an Antiviral effect with SARS-CoV-2 (at 100 µM) of 75%. Also, in the data set with HUH7 cells (HUH7 cells), the “Concentration up to which non-cytotoxic” value is reported as “up to 100 µM”.

For the compound `O=C(NC1CC1)C(=O)C(Cc1ccccc1)NC(=O)C1CCC(=O)N1Cc1ccccc1` (stereo not shown) [Compound 2, ABT-957, reference compound], the inhibition at 10 µM on SARS-CoV-2 PL^pro (ReFRAME hits, 10 µM) came to 17%; at SARS-CoV-2 M^pro (ReFRAME hits), 73%. Also, the figures for the half-inhibitory concentration (IC50) at SARS-CoV-2 PL^pro (read-out: PL^pro IC50), on SARS-CoV-2 M^pro (setting [2]) and on SARS-CoV-2 M^pro (read-out: IC50 against M^pro) were > 5 µM, > 5 µM and > 100 µM, respectively.

For the compound `CCOC(=O)C[C@H](NC(=O)[C@H](C)NC(=O)[C@@H](NC(=O)OCc1ccccc1)C(C)C)C(=O)COC(=O)c1c(Cl)cccc1Cl` [Compound 4, Ethyl (5S,8S,11S)-11-(2-((2,6-dichlorobenzoyl)oxy)acetyl)-5-isopropyl-8-methyl-3,6,9-trioxo-1-phenyl-2-oxa-4,7,10-triazatridecan-13-oate, reference compound], the “Binding to M^pro in SPR (in words)” value on M^pro is given as “confirmed to bind”; on M^pro (in the presence of slow off-rate inhibitor N3), “no binding observed”. For the same compound, the inhibition at 10 µM turned out to be 19% at SARS-CoV-2 PL^pro (ReFRAME hits, 10 µM) and 95% on SARS-CoV-2 M^pro (ReFRAME hits). The IC50 was > 5 µM at SARS-CoV-2 PL^pro (read-out: PL^pro IC50) and 0.03 µM at SARS-CoV-2 M^pro (30 nM is the biochemical limit of the assay, read-out: IC50 against M^pro). Besides, in the data set with SARS-CoV-2 (at 10 µM, dose refreshed daily), the Antiviral effect was determined as 50%. Moreover, the “Concentration up to which non-cytotoxic” value in the data set on HUH7 cells (human) was ≤ 10 µM.

`CCOC1OC(=O)CC1NC(=O)C1CCCN1C(=O)C(NC(=O)c1ccc(N)c(Cl)c1)C(C)(C)C` (stereo not shown) [Compound 7, belnecasan, reference compound]: the “Inhibition of M^pro (in words)” value at SARS-CoV-2 M^pro was “did not substantially inhibit”.

`CCOc1cc2ncc(C#N)c(Nc3ccc(F)c(Cl)c3)c2cc1NC(=O)/C=C/CN(C)C` [Compound 10, Pelitinib, reference compound]: at SARS-CoV-2 PL^pro (setting [3]), the half-inhibitory concentration (IC50) is > 100 µM. Besides, the “Inhibition of M^pro (in words)” value at SARS-CoV-2 M^pro is given as “not determined to display significant biochemical inhibition”.

On to `CN(C)C/C=C/C(=O)Nc1cc2c(Nc3ccc(F)c(Cl)c3)ncnc2cc1O[C@H]1CCOC1` [Compound 11, Afatinib, reference compound], for which the half-maximal inhibitory concentration (IC50) on SARS-CoV-2 PL^pro (setting [3]) is 12 µM.

`COc1cc2ncnc(Nc3ccc(F)c(Cl)c3)c2cc1NC(=O)/C=C/CN1CCCCC1` [Compound 12, Dacomitinib, reference compound]: at SARS-CoV-2 PL^pro (setting [3]), the half-inhibitory concentration (IC50) was found to be 4 µM.

Consider `CCC[C@@H](NC(=O)N1C(=O)C(CC)(CC)[C@@H]1Oc1ccc(CC(=O)O)cc1)c1ccc(C)cc1` [L 680833], for which the “PL^pro % inhibition at 10 µM” value on SARS-CoV-2 PL^pro (ReFRAME hits, 10 µM) was found to be 11%. Further, the IC50 at SARS-CoV-2 PL^pro (setting [1]) and on SARS-CoV-2 M^pro (setting [2]) was > 5 µM each time. In addition, the “M^pro % inhibition at 10 µM” value on SARS-CoV-2 M^pro (ReFRAME hits) was 36%.

`COc1ccc(/C=C/CCCCOc2ccc(C(=O)c3cccc(C(=O)O)c3)cc2CCC(=O)O)cc1` [LY 223982]: the “PL^pro % inhibition at 10 µM” value on SARS-CoV-2 PL^pro (ReFRAME hits, 10 µM) stood at 22%. Besides, the IC50 at SARS-CoV-2 PL^pro (setting [1]) and at SARS-CoV-2 M^pro (setting [2]) was > 5 µM in each case. The “M^pro % inhibition at 10 µM” value at SARS-CoV-2 M^pro (ReFRAME hits) was determined as 43%.

As to `Nc1nc(N)nc(Nc2ccc([As]3SC(C(=O)O)C(C(=O)O)S3)cc2)n1` (stereo not shown) [MELARSONYL], the “PL^pro % inhibition at 10 µM” value at SARS-CoV-2 PL^pro turned out to be 11%. Further, the IC50 on SARS-CoV-2 PL^pro (read-out: PL^pro IC50) is > 5 µM.

Regarding `Cl.Cl.Cl.Cl.N=C(N)NCCCCC(=O)Nc1cc(C(F)(F)F)cc(NC(=O)c2cc(C(=O)Nc3cc(C(F)(F)F)cc(NC(=O)CCCCNC(=N)N)c3O[C@@H]3CCNC3)ncn2)c1O[C@@H]1CCNC1` [PMX-30063], on SARS-CoV-2 PL^pro (ReFRAME hits, 10 µM), the “PL^pro % inhibition at 10 µM” value is 30%. Also, the IC50 was 2 µM on SARS-CoV-2 PL^pro (setting [1]) and > 5 µM at SARS-CoV-2 M^pro (setting [2]). In addition, the “M^pro % inhibition at 10 µM” value at SARS-CoV-2 M^pro (ReFRAME hits) is 11%.

Regarding `CN1CCCN=C1/C=C/c1cccs1` [Pyrantel pamoate, reference compound], at SARS-CoV-2 PL^pro, the IC50 was > 5 µM.

Regarding `CN(C/C=C/C#CC(C)(C)C)Cc1cccc2c(F)cc(F)cc12` [SDZ-880-540], the “PL^pro % inhibition at 10 µM” value on SARS-CoV-2 PL^pro (ReFRAME hits, 10 µM) worked out at 15%. For the same compound, the IC50 at SARS-CoV-2 PL^pro (setting [1]) and on SARS-CoV-2 M^pro (setting [2]) was > 5 µM each time. Further, the “M^pro % inhibition at 10 µM” value at SARS-CoV-2 M^pro (ReFRAME hits) was -1%.
